Experimental data as given in patent US10597414B2, “Crystalline polymorphic form of 3-hydroxy-4,5-bis-benzyloxy-6-benzyloxymethyl-2-phenyl-2-OXO-2λ5-[1,2]oxaphosphinane” (PHOST'IN, priority 2016, dated 2020).

Experiments:
[1] = Stability of polymorphic forms (maturation at room temperature, cross-seeding tests); type: physicochemical; conditions: 25° C., several days of maturation
Protocol: Other polymorphic forms could be obtained by recrystallizing out from specific organic solvents starting from the crystalline form of the invention. However, said other polymorphic forms are not stable after several days of maturation at room temperature (more specifically at 25° C.).

[2] = Compression test followed by X-ray diffraction; type: physicochemical; conditions: pressure of 10 tons for 5 min, 13 mm die
Protocol: Compression Test The sample was introduced into a die with 13 mm diameter (m=103.83 mg). The sample was then compressed with a hydraulic press at a pressure of 10 tons for 5 minutes, and immediately analyzed by X-ray diffraction.

[3] = Dynamic vapor sorption (DVS) analysis; type: physicochemical
Protocol: Dynamic Vapor Sorption (DVS)
The analyses were performed on a Surface Measurements System DVS Intrinsic. The samples (few milligrams of product obtained by carrying out the above scheme 5) were placed in an open aluminum pan. Analyses were performed at 25° C.
Relative humidity was scanned between 0% RH and 95% RH with 10% RH steps (40-0-95-0-95; unless stated otherwise). The stability criterion was a variation in mass lower than 0.002% on a 5 min. window (with a minimum step time of 10 min and a maximum of 100 min).

[4] = Thermogravimetric analysis (TGA); type: physicochemical; conditions: about 25° C. to 250° C., before and after melting
Protocol: The analyses were performed on a Perkin Elmer Pyris 1 TGA. The samples (few milligrams of product obtained by carrying out the above scheme 5) were placed in an aluminum pan and the cover was crimped. Analyses were performed under nitrogen purge (20 mL/min) and the cover was punctured at the beginning of the analysis.
Temperature scans were carried out between 25° C. and 300° C. at a speed of 10°/min (unless stated otherwise).

[5] = tested on: glioblastoma; conditions: prior art, J. Med. Chem. 2012, 55, 2196-2211; cited from earlier work

Structure (SMILES)	Relative stability of polymorphic form [1]	Solid state stability after compression (diffraction pattern vs starting material) [2]	Hygroscopicity ([3]; DVS, 0% RH to 95% RH, 25° C.)	DVS weight loss ([3]; drying steps, 25° C., relative humidity 0% RH to 95% RH)	XRPD pattern after DVS analysis compared with before ([3]; sample kept at 95% RH on the final step)	DVS weight gain with respect to the initial weight ([3]; steps at higher relative humidity conditions, 25° C.) [%]	Weight loss by TGA [4]	Relative potency among the four diastereoisomers [5]
O=P1(c2ccccc2)OC(COCc2ccccc2)C(OCc2ccccc2)C(OCc2ccccc2)C1O (centres unmarked) [crystalline form of compound I, 3-Hydroxy-4,5-bis-benzyloxy-6-benzyloxymethyl-2-phenyl-2-oxo-2λ5-[1,2]oxaphosphinane]	most stable form	same peaks	non-hygroscopic	lower than 0.1%	same profile	0.1	no significant weight loss	
O=[P@@]1(c2ccccc2)O[C@H](COCc2ccccc2)[C@@H](OCc2ccccc2)[C@H](OCc2ccccc2)[C@H]1O [PST3.1a]								most potent diastereoisomer
